From US20020039780A1, “Salicyclic acid inducible genes and promoters” (priority 1998, published 2002) come the findings set out here.

The test system of this test is early SA-induced genes identified by differential display. The test is described as follows: Northern analysis of differential display genes in cultured tobacco cells. Type of test: cell-based. How it is done: FIG. 1. […] Northern analysis of genes identified by differential display. Gel-purified DNA fragments produced by ddPCR were either used directly for random-primed labeling and probing of Northern filters (e.g. C7-1, C6-1, and G9-2) or first subcloned and released by restriction digest. Each lane contains 1 μg of poly(A) mRNA from cultured tobacco cells treated with (1) H2O, 4 hr; (2) 200 μM SA, 4 hr; (3) 71 μM CHX, 5 hr; (4) 71 μM CHX, 5 hr plus 200 μM SA after 1 hr (4 hr total); (5) 20 μM SA, 2 hr; (7) 200 μM SA, 8 hr.
FIG. 4. Specificity of induction among SA analogs and other signalling compounds. Northern analysis of representative differential display genes following treatment of tobacco cells with 100 μM or 1 mM (left and right side of triangles, respectively) of the following chemicals for 2-2.5 hr: salicylic acid (SA, lanes 4 and 5), acetylSA (ASA, lanes 6 and 7), benzoic acid (BA, lanes 8 and 9), 4-hydroxybenzoic (4HBA, lanes 10 and 11), thiamine (thia, lanes 12 and 13), methyljasmonate (MJ, lanes 14 and 15), abscisic acid (ABA, lanes 16 and 17), or 2,4-dichlorophenoxyacetic acid (2,4-D, lanes 18 and 19). Control treatments are H2O (H, lane 1), 1% ethanol (E, solvent concentration in MJ treatments, lane 2), or 1% DMSO (D, solvent concentration in 2,4D treatments, lane 3). Blots were hybridized with ddPCR fragments indicated at right or with the β-ATPase geneas a loading control probe. Autoradiogram exposure times were optimized for each gene. […] Labels on left indicate response class.
Differential display technology (Liang, P. and Pardee, A. B., Science 257: 967-971, 1992) was used to identify genes activated in the presence of SA, CHX and both. Therefore the absence or presence of SA, induction at 3 timepoints of SA-treatment, 2 different concentrations of SA and the effect of addition of CHX were measured. Seven treatments in total were performed. Treatment of tobacco BY-2 suspension cells and leaves and differential display PCR reactions were performed as described (Horvath and Chua (1996), Plant Mol. Biol. 31, 1061-1072).
The specificity for induction by SA was tested by treating tobacco cells with a range of SA analogs and plant signalling compounds at 0.1 and 1 mM for approximately 2.5 h. […] Several genes, including those for proteinase inhibitors and lipoxygenase (Hildmann, T. et al., Plant Cell 4: 1157-1170, 1992; Melan, M. A. et al., Plant Physiol. 101: 441-450, 1993; Xu, D. et al., Plant Mol. Biol. 22: 573-588, 1993) are known to be under dual regulation by MJ and ABA.

Take `O=C(O)c1ccccc1O` [SA, salicylic acid]: the “induction of most of the genes at 20 μM SA” value (20 μM SA) is given as “little or none”. The “induction of most of the genes at 200 μM SA” value (200 μM SA) is listed as “clear induction”.
